Experimental data as given in patent publication US11406694B2, “Vaccine comprising drug and parasite administration” (priority 2016, dated 2022).

How the values were obtained:
P. falciparum 7G8 = experiment: Blood stage P. falciparum infection of human volunteers under doxycycline, parasitaemia by qPCR; assay type: in vivo; conditions: two volunteers, 3×10^6 P. falciparum pRBC, 100 mg doxycycline once daily for 21 days
Description: FIG. 13: Persistence of P. falciparum 7G8 in volunteers receiving doxycycline chemoprophylaxis. […] Volunteers received 3×106 pRBCs on D0, followed by doxycycline treatment administered orally (100 mg/day) from D0 to D20.
We have also started human experiments. Initially we have given two volunteers a blood stage infection initiated with 3×10^6 magnet-purified P. falciparum trophozoite-parasitized human red cells (pRBC). At the same time, volunteers were administered 100 mg doxycycline once daily for 21 days, although this could be changed to twice daily. A controlled release form of doxycycline (such as Atridox® comprising doxycycline hyclate) will also be tested.
Parasite concentration is determined whereby the log10 of each known concentration of a standard concentration range is plotted against the quantification cycle of Cq values of the test samples in a linear regression model (y=mx+b) using Biorad CFX manager 2.1 software.

Plasmodium parasite = experiment: Blood-stage infection of mice under daily doxycycline treatment (course of infection during infection/drug cure); assay type: in vivo
Description: The work described herein relates to giving mice and humans a blood stage malaria infection and daily doses of oral (human) or intraperitoneal (mice) doxycycline as a delayed death agent. This cycle can be repeated and we have given mice 1 or 3 cycles of infection/drug cure (IDC) with doxycycline.
Mice (BALB/c or C57/B6) received varying doses of Plasmodium parasite (10^5-10^7 trophozoite parasitised red blood cells; pRBC), administered via intravenous injection (200 μL). Mice were subsequently started on doxycycline treatment (doxycycline hydrate (Sigma) dissolved in 1× phosphate buffered saline, 50 mg/kg administered in ˜100 μL volume via intraperitoneal injection) approximately 1-2 hours post infection. Mice received treatment every day for 7 days. Subsequent infection and drug cures (IDCs) were administered 2 weeks from the day of last treatment (or 3 weeks between infections). Mice were challenged 4 weeks from the day of last treatment of the last round of IDC (or 5 weeks from last infection).
Blood smears were performed on D1, 2, 4 and 6 post infection during IDC 1, 2 and 3.

## C[C@H]1c2cccc(O)c2C(=O)C2=C(O)[C@]3(O)C(=O)C(C(N)=O)=C(O)[C@@H](N(C)C)[C@@H]3[C@@H](O)[C@@H]21 [doxycycline]
P. falciparum 7G8
  illness of the volunteers: did not become ill
Plasmodium parasite; 10^5-10^7 pRBC i.v., doxycycline 50 mg/kg i.p. daily for 7 days
  time the infection takes to clear: approximately 4 days
Plasmodium parasite; pRBC i.v. with doxycycline 50 mg/kg i.p. daily for 7 days
  condition of the mice during the infection: remain well
